The source made the active and inactive calls. No cut-off for these calls is given here.
Legend:
K562 [1] = test: Cytotoxicity against human K562 cells assessed as inhibition of cell growth incubated for 48 hrs by CCK-8 assay; format: functional, cell-based; settings: K562, 48 h
T-24 = test: Cytotoxicity against human T24 cells assessed as inhibition of cell growth incubated for 48 hrs by CCK-8 assay; format: functional, cell-based; settings: T-24, 48 h
MKN-45 = test: Cytotoxicity against human MNK45 cells assessed as inhibition of cell growth incubated for 48 hrs by CCK-8 assay; format: functional, cell-based; settings: MKN-45, 48 h
HepG2 = test: Cytotoxicity against human HepG2 cells assessed as inhibition of cell growth incubated for 48 hrs by CCK-8 assay; format: functional, cell-based; settings: HepG2, 48 h
A549 [2] = test: Cytotoxicity against human A549 cells assessed as inhibition of cell growth incubated for 48 hrs by CCK-8 assay; format: functional, cell-based; settings: A549, 48 h
MCF7 = test: Cytotoxicity against human MCF7 cells assessed as inhibition of cell growth incubated for 48 hrs by CCK-8 assay; format: functional, cell-based; settings: MCF7, 48 h
K562 [3] = test: Potency index, ratio of diosgenin IC50 to test compound IC50 for cytotoxicity against human K562 cells assessed as inhibition of cell growth incubated for 48 hrs by CCK-8 assay; format: functional
K562 [4] = test: Potency index, ratio of 5-FU IC50 to test compound IC50 for cytotoxicity against human K562 cells assessed as inhibition of cell growth incubated for 48 hrs by CCK-8 assay; format: functional
A549 [5] = test: Potency index, ratio of diosgenin IC50 to test compound IC50 for cytotoxicity against human A549 cells assessed as inhibition of cell growth incubated for 48 hrs by CCK-8 assay; format: functional
K562 [6] = test: Induction of apoptosis in human K562 cells assessed as decrease in cell density at 3 to 12 uM incubated for 48 hrs by light microscopic analysis; format: functional, cell-based; settings: dose 3-12 µM
K562 [7] = test: Induction of apoptosis in human K562 cells assessed as increase in number of broken cells at 3 to 12 uM incubated for 48 hrs by light microscopic analysis; format: functional, cell-based; settings: dose 3-12 µM
K562 [8] = test: Induction of apoptosis in human K562 cells assessed as decrease in cell density at 3 to 12 uM incubated for 48 hrs by Hoechst 33342/PI staining based fluorescence microscopic analysis; format: functional; settings: dose 3-12 µM
K562 [9] = test: Induction of apoptosis in human K562 cells assessed as chromatin condensation at 3 to 12 uM incubated for 48 hrs by Hoechst 33342/PI staining based fluorescence microscopic analysis; format: functional, cell-based; settings: dose 3-12 µM
K562 [10] = test: Induction of apoptosis in human K562 cells assessed as nuclear fragmentation at 3 to 12 uM incubated for 48 hrs by Hoechst 33342/PI staining based fluorescence microscopic analysis; format: functional, cell-based; settings: dose 3-12 µM
K562 [11] = test: Induction of apoptosis in human K562 cells assessed as early apoptotic cells at 3 uM incubated for 48 hrs by annexin V-FITC/PI staining based flow cytometry (reference value: 0.32 %); format: functional
K562 [12] = test: Induction of apoptosis in human K562 cells assessed as late apoptotic cells at 3 uM incubated for 48 hrs by annexin V-FITC/PI staining based flow cytometry (reference value: 0.11 %); format: functional
K562 [13] = test: Induction of apoptosis in human K562 cells assessed as early apoptotic cells at 6 uM incubated for 48 hrs by annexin V-FITC/PI staining based flow cytometry (reference value: 0.32 %); format: functional
K562 [14] = test: Induction of apoptosis in human K562 cells assessed as late apoptotic cells at 6 uM incubated for 48 hrs by annexin V-FITC/PI staining based flow cytometry (reference value: 0.11 %); format: functional
K562 [15] = test: Induction of apoptosis in human K562 cells assessed as early apoptotic cells at 12 uM incubated for 48 hrs by annexin V-FITC/PI staining based flow cytometry (reference value: 0.32 %); format: functional
K562 [16] = test: Induction of apoptosis in human K562 cells assessed as late apoptotic cells at 12 uM incubated for 48 hrs by annexin V-FITC/PI staining based flow cytometry (reference value: 0.11 %); format: functional
K562 [17] = test: Induction of ROS generation in human K562 cells at 3 uM incubated for 48 hrs by DCFH-DA staining-based flow cytometry (reference value: 3.68 %); format: functional
K562 [18] = test: Induction of ROS generation in human K562 cells at 6 uM incubated for 48 hrs by DCFH-DA staining-based flow cytometry (reference value: 3.68 %); format: functional
K562 [19] = test: Induction of ROS generation in human K562 cells at 12 uM incubated for 48 hrs by DCFH-DA staining-based flow cytometry (reference value: 3.68 %); format: functional
K562 [20] = test: Induction of mitochondrial membrane potential loss in human K562 cells assessed as cell population with intact mitochondrial membrane potential at 3 uM after 48 hrs by JC1 dye-based flow cytometry analysis (reference value: 96.48%); format: functional
K562 [21] = test: Induction of mitochondrial membrane potential loss in human K562 cells assessed as cell population with mitochondrial membrane potential collapse at 3 uM after 48 hrs by JC1 dye-based flow cytometry analysis (reference value: 2.75%); format: functional
K562 [22] = test: Induction of mitochondrial membrane potential loss in human K562 cells assessed as cell population with intact mitochondrial membrane potential at 6 uM after 48 hrs by JC1 dye-based flow cytometry analysis (reference value: 96.48%); format: functional
K562 [23] = test: Induction of mitochondrial membrane potential loss in human K562 cells assessed as cell population with mitochondrial membrane potential collapse at 6 uM after 48 hrs by JC1 dye-based flow cytometry analysis (reference value: 2.75%); format: functional
K562 [24] = test: Induction of mitochondrial membrane potential loss in human K562 cells assessed as cell population with intact mitochondrial membrane potential at 12 uM after 48 hrs by JC1 dye-based flow cytometry analysis (reference value: 96.48%); format: functional
K562 [25] = test: Induction of mitochondrial membrane potential loss in human K562 cells assessed as cell population with mitochondrial membrane potential collapse at 12 uM after 48 hrs by JC1 dye-based flow cytometry analysis (reference value: 2.75%); format: functional
K562 [26] = test: Induction of apoptosis in human K562 cells assessed as increase in Bax gene expression at 3 to 12 uM after 48 hrs by SYBR green dye-based qRT-PCR analysis; format: functional, cell-based; settings: dose 3-12 µM
K562 [27] = test: Induction of apoptosis in human K562 cells assessed as increase in cleaved caspase 9 gene expression at 3 to 12 uM after 48 hrs by SYBR green dye-based qRT-PCR analysis; format: functional, cell-based; settings: dose 3-12 µM
K562 [28] = test: Induction of apoptosis in human K562 cells assessed as increase in cleaved caspase 3 gene expression at 3 to 12 uM after 48 hrs by SYBR green dye-based qRT-PCR analysis; format: functional, cell-based; settings: dose 3-12 µM
K562 [29] = test: Induction of apoptosis in human K562 cells assessed as increase in cleaved PARP gene expression at 3 to 12 uM after 48 hrs by SYBR green dye-based qRT-PCR analysis; format: functional, cell-based; settings: dose 3-12 µM
K562 [30] = test: Induction of apoptosis in human K562 cells assessed as increase in Bax protein expression at 3 to 12 uM after 48 hrs by Western blot analysis; format: functional, cell-based; settings: dose 3-12 µM
K562 [31] = test: Induction of apoptosis in human K562 cells assessed as increase in cleaved caspase 9 protein expression at 3 to 12 uM after 48 hrs by Western blot analysis; format: functional, cell-based; settings: dose 3-12 µM
K562 [32] = test: Induction of apoptosis in human K562 cells assessed as increase in cleaved caspase 3 protein expression at 3 to 12 uM after 48 hrs by Western blot analysis; format: functional, cell-based; settings: dose 3-12 µM
K562 [33] = test: Induction of apoptosis in human K562 cells assessed as increase in cleaved PARP protein expression at 3 to 12 uM after 48 hrs by Western blot analysis; format: functional, cell-based; settings: dose 3-12 µM
K562 [34] = test: Induction of apoptosis in human K562 cells assessed as decrease in Bcl-2 gene expression after 48 hrs by SYBR green dye-based qRT-PCR analysis; format: functional, cell-based; settings: dose 3-12 µM
K562 [35] = test: Induction of apoptosis in human K562 cells assessed as decrease in Bcl-2 protein expression after 48 hrs by Western blot analysis; format: functional, cell-based; settings: dose 3-12 µM
K562 [36] = test: Induction of apoptosis in human K562 cells assessed as increase in cytochrome c protein expression after 48 hrs by Western blot analysis; format: functional, cell-based; settings: dose 3-12 µM

Compound `CC(=O)O[C@H]1CC[C@@]2(C)C(=CC[C@H]3[C@@H]4C[C@@H]5O[C@H](CC[C@@H](C)COC(=O)[C@@H](N)Cc6c[nH]c7ccccc67)[C@@H](C)[C@@H]5[C@@]4(C)CC[C@@H]32)C1` has an IC50 (K562 [1]) of 4.41 µM, an IC50 (T-24) of 6.34 µM and an IC50 (MKN-45) of 16.2 µM. The IC50 (HepG2) was 12.7 µM, the IC50 (A549 [2]) was 7.82 µM and the IC50 (MCF7) was 11.3 µM. The “Ratio IC50” value (K562 [3]) was 6.8, the “Ratio IC50” value (K562 [4]) was 4.3 and the “Ratio IC50” value (A549 [5]) was 4.2. The Activity (K562 [6]) was “Active”, the Activity (K562 [7]) was “Active” and the Activity (K562 [8]) was “Active”. For the same compound, the Activity (K562 [9]) was “Active”, the Activity (K562 [10]) was “Active” and the Activity (K562 [11]) was 4.78%. It also gave an Activity (K562 [12]) of 9.13%, an Activity (K562 [13]) of 11.42% and an Activity (K562 [14]) of 14.13%. It also gave an Activity (K562 [15]) of 21.45%, an Activity (K562 [16]) of 18.85% and an Activity (K562 [17]) of 16.85%. The Activity (K562 [18]) was 22.26%, the Activity (K562 [19]) was 34.25% and the Activity (K562 [20]) was 90.01%. For the same compound, the Activity (K562 [21]) was 8.78%, the Activity (K562 [22]) was 75.88% and the Activity (K562 [23]) was 21.23%. For the same compound, the Activity (K562 [24]) was 27.71%, the Activity (K562 [25]) was 67.81% and the Activity (K562 [26]) was “Active”. For the same compound, the Activity (K562 [27]) was “Active”, the Activity (K562 [28]) was “Active” and the Activity (K562 [29]) was “Active”. For the same compound, the Activity (K562 [30]) was “Active”, the Activity (K562 [31]) was “Active” and the Activity (K562 [32]) was “Active”. For the same compound, the Activity (K562 [33]) was “Active”, the Activity (K562 [34]) was “Dose-Dependent Effect” and the Activity (K562 [35]) was “Dose-Dependent Effect”. The Activity (K562 [36]) was “Dose-Dependent Effect”.
